# Patent US20240158446A1, “CYCLIC COMPOUND HAVING SELECTIVE INHIBITORY ACTION ON KRAS OVER HRAS AND NRAS” (CHUGAI SEIYAKU KABUSHIKI KAISHA, priority 2021, published 2024)
# Where two headings read alike, the source gives them in different places.
# What was measured:
# [1] = test system: human lung cancer strain NCI-H441;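 note: cell proliferation inhibition after four days measured by CellTiter-Glo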
# [2] = biological target: GDP-bound NRAS wild-type protein (Homo sapiens, UniProt P01111); assay: Binding to NRAS by surface plasmon resonance (SPR), Single Cycle Kinetics; conditions: for NRAS/KRAS (ratio of KD value for NRAS to KD value for KRAS) / NRAS/KRAS (KD ratio): SPR; for NRAS/KRAS (ratio of KD value for NRAS to KD value for KRAS): GDP-bound NRAS wild-type protein vs GDP-bound KRAS wild-type protein; for NRAS/KRAS (KD ratio): ratio of KD for GDP-bound NRAS wild-type protein to KD for KRAS; for NRAS/KRAS (ratio of KD value with respect to GDP-bound NRAS wild-type protein to KD value with respect to KRAS): SPR KD ratio NRAS/KRAS, class symbols
# Chain of GDP-bound NRAS wild-type protein (P01111 whole entry): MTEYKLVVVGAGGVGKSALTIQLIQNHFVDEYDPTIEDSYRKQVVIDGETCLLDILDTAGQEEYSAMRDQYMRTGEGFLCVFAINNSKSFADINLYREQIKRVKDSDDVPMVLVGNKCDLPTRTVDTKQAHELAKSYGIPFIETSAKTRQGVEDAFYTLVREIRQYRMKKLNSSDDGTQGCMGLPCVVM
# [3] = biological target: GDP-bound HRAS wild-type protein (Homo sapiens, UniProt P01112); assay: Binding to HRAS by surface plasmon resonance (SPR), Single Cycle Kinetics; conditions: for HRAS/KRAS (ratio of KD value for HRAS to KD value for KRAS) / HRAS/KRAS (KD ratio): SPR; for HRAS/KRAS (ratio of KD value for HRAS to KD value for KRAS): GDP-bound HRAS wild-type protein vs GDP-bound KRAS wild-type protein; for HRAS/KRAS (KD ratio): ratio of KD for GDP-bound HRAS wild-type protein to KD for KRAS; for HRAS/KRAS (ratio of KD value with respect to GDP-bound HRAS wild-type protein to KD value with respect to KRAS): SPR KD ratio HRAS/KRAS, class symbols
# Chain of GDP-bound HRAS wild-type protein (P01112 whole entry): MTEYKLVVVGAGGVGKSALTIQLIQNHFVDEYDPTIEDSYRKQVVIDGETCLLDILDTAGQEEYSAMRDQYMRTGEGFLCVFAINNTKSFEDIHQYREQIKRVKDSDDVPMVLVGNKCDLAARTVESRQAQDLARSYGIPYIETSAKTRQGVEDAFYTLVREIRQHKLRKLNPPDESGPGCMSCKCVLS
# [4] = read-out: NCI-H441 IC50, NCI-H441 cell proliferation, 4 days, CellTiter-Glo
# [5] = read-out: NCI-H441 IC50, NCI-H441 cells, four days, CellTiter-Glo
Compound,IC50 [1] [nM],NRAS/KRAS (ratio of KD value for NRAS to KD value for KRAS) [2],HRAS/KRAS (ratio of KD value for HRAS to KD value for KRAS) [3],NRAS/KRAS (ratio of KD value with respect to GDP-bound NRAS wild-type protein to KD value with respect to KRAS) [2],HRAS/KRAS (ratio of KD value with respect to GDP-bound HRAS wild-type protein to KD value with respect to KRAS) [3],other results
CCO[C@@H]1C[C@H]2C(=O)NC3(CCC3)C(=O)N(C)[C@@H](C3CCCC3)C(=O)N(C)[C@H](C(=O)N(C)C)CC(=O)N(CC)[C@@H](CC(C)C)C(=O)N[C@@H]([C@@H](C)CC)C(=O)N(C)CC(=O)N(C)[C@H]3CC(C)=C(C)CN(C3=O)[C@@H](Cc3ccc(C(F)(F)F)cc3)C(=O)N(C)CC(=O)N[C@@H](CCc3cc(F)c(C(F)(F)F)c(F)c3)C(=O)N2C1 [PP1051],286,C (A compound having a KD ratio of 0.1 or more and less than 3 is denoted as C),C (A compound having a KD ratio of 0.1 or more and less than 3 is denoted as C),,,
CCO[C@@H]1C[C@H]2C(=O)NC3(CCC3)C(=O)N(C)[C@@H](C3CCCC3)C(=O)N(C)[C@H](C(=O)N3CCOCC3)CC(=O)N(C)[C@@H](Cc3ccccc3)C(=O)N[C@@H]([C@@H](C)CC)C(=O)N(C)CC(=O)N(C)[C@H]3CCCCCN(C3=O)[C@@H](Cc3ccc(F)cc3)C(=O)N(C)CC(=O)N[C@@H](CCc3cc(F)c(C(F)(F)F)c(F)c3)C(=O)N2C1 [PP1181],26.3,B (a compound having 3 or more and less than 10 is denoted as B),B (a compound having 3 or more and less than 10 is denoted as B),,,
CCO[C@@H]1C[C@H]2C(=O)NC3(CCC3)C(=O)N(C)[C@@H](C3CCCC3)C(=O)N(C)[C@H](C(=O)N3CCCC3)CC(=O)N(C)[C@@H](CC)C(=O)N[C@@H]([C@@H](C)CC)C(=O)N(C)CC(=O)N(C)[C@H]3C/C=C\CCN(C3=O)[C@@H](CC3CCC(F)(F)CC3)C(=O)N(C)CC(=O)N[C@@H](CCc3cc(F)c(C(F)(F)F)c(F)c3)C(=O)N2C1 [PP1442],48.3,,,,,NRAS/KRAS (ratio of KD value for NRAS to KD value for KRAS) ([2]; KD ratio class): A (a compound having 10 or more and less than 20 is denoted as A); HRAS/KRAS (ratio of KD value for HRAS to KD value for KRAS) ([3]; KD ratio class): A (a compound having 10 or more and less than 20 is denoted as A)
CCO[C@@H]1C[C@H]2C(=O)NC3(CCC3)C(=O)N(C)[C@@H](C3CCCC3)C(=O)N(C)[C@H](C(=O)N(CC)CC)CC(=O)N(C)[C@@H](CC(C)C)C(=O)N[C@@H]([C@@H](C)CC)C(=O)N(C)CC(=O)N(C)[C@H]3C/C=C\CCN(C3=O)[C@@H](Cc3ccc(C)cc3)C(=O)N(C)CC(=O)N[C@@H](CCc3ccc(C(F)(F)F)c(OC)c3)C(=O)N2C1 [PP1851],,,,,,"IC50 [1, 4]: 165 nM; NRAS/KRAS (KD ratio) [2]: A (a compound having 10 or more and less than 20 is denoted as A); HRAS/KRAS (KD ratio) [3]: A (a compound having 10 or more and less than 20 is denoted as A)"
CCO[C@@H]1C[C@H]2C(=O)NC3(CCC3)C(=O)N(C)[C@@H](C3CCCC3)C(=O)N(C)[C@H](C(=O)N(CC)CC)CC(=O)N(C)[C@@H](CC(C)C)C(=O)N[C@@H]([C@@H](C)CC)C(=O)N(C)CC(=O)N(C)[C@H]3C/C=C\CCN(C3=O)[C@@H](Cc3ccc(C)cc3)C(=O)N(C)CC(=O)N[C@@H](CCc3ccc(C(F)(F)F)c(OC)c3)C(=O)N2C1 [PP1887],,,,,,"IC50 [1, 4]: 19.2 nM; NRAS/KRAS (KD ratio) [2]: A (a compound having 10 or more and less than 20 is denoted as A); HRAS/KRAS (KD ratio) [3]: B (a compound having 3 or more and less than 10 is denoted as B)"
CCC[C@H]1C(=O)N[C@@H]([C@@H](C)CC)C(=O)N(C)CC(=O)N(C)[C@H]2C/C=C\CCN(C2=O)[C@@H](Cc2ccc(C)cc2)C(=O)N(C)CC(=O)N[C@@H](CCc2cc(F)c(C(F)(F)F)c(F)c2)C(=O)N2C[C@H](OCC)C[C@H]2C(=O)NC2(CC(C)(C)C2)C(=O)N(C)[C@@H](C(CC)CC)C(=O)N(C)[C@H](C(=O)N(C)C)CC(=O)N1C [PP2064],13.6,A (a compound having 10 or more and less than 20 is denoted as A),A (a compound having 10 or more and less than 20 is denoted as A),,,
CCO[C@@H]1C[C@H]2C(=O)NC3(CC(C)(C)C3)C(=O)N(C)[C@@H](C3CCCC3)C(=O)N(C)[C@H](C(=O)N(C)C)CC(=O)N(C)[C@@H](CC(C)C)C(=O)N[C@@H]([C@@H](C)CC)C(=O)N(C3CC3)CC(=O)N(C)[C@H]3C/C=C\CCN(C3=O)[C@@H](Cc3ccc(C)cc3)C(=O)N(C)CC(=O)N[C@@H](CCc3cc(F)c(C(F)(F)F)c(F)c3)C(=O)N2C1 [PP2109],5.7,A (a compound having 10 or more and less than 20 is denoted as A),A (a compound having 10 or more and less than 20 is denoted as A),,,
CCCOC[C@H]1C(=O)N[C@@H]([C@@H](C)CC)C(=O)N(C)CC(=O)N(C)[C@H]2C/C=C\CCN(C2=O)[C@@H](Cc2ccc(C)cc2)C(=O)N(C)CC(=O)N[C@@H](CCc2cc(F)c(C(F)(F)F)c(F)c2)C(=O)N2C[C@H](CCC)C[C@H]2C(=O)NC2(CCC2)C(=O)N(C)[C@@H](C2CCCC2)C(=O)N(C)[C@H](C(=O)N(C)C)CC(=O)N1C [PP2232],18.7,A (a compound having 10 or more and less than 20 is denoted as A),A (a compound having 10 or more and less than 20 is denoted as A),,,
CCCOC[C@H]1C(=O)N[C@@H]([C@@H](C)CC)C(=O)N(C)CC(=O)N(C)[C@H]2C/C=C\CCN(C2=O)[C@@H](Cc2ccc(C)cc2)C(=O)N(C)CC(=O)N[C@@H](CCc2ccc(C(F)(F)F)c(Cl)c2)C(=O)N2C[C@H](CC)C[C@H]2C(=O)NC2(CC(C)(C)C2)C(=O)N(C)[C@@H](C2CCCC2)C(=O)N(C)[C@H](C(=O)N(C)C)CC(=O)N1C [PP2235],22.1,A (a compound having 10 or more and less than 20 is denoted as A),A (a compound having 10 or more and less than 20 is denoted as A),,,
CCC[C@H]1C(=O)N[C@@H]([C@@H](C)CC)C(=O)N(C)CC(=O)N(C)[C@H]2C/C=C\CCN(C2=O)[C@@H](CC2CCCCC2)C(=O)N(C)CC(=O)N[C@@H](CCc2ccc(C(F)(F)F)c(OC)c2)C(=O)N2C[C@H](OCC)C[C@H]2C(=O)N(C)C2(CCC2)C(=O)N(C)[C@@H](C(CC)CC)C(=O)N(C)[C@H](C(=O)N(C)C)CC(=O)N1C [PP2333],44.7,A (a compound having 10 or more and less than 20 is denoted as A),A (a compound having 10 or more and less than 20 is denoted as A),,,
CCO[C@@H]1C[C@H]2C(=O)NC3(CCC3)C(=O)N(C)[C@@H](C3CCCC3)C(=O)N(C)[C@H](C(=O)N(C)C)CC(=O)N(C)[C@@H](CC3CCCC3)C(=O)N[C@@H]([C@@H](C)CC)C(=O)N(C)CC(=O)N(C)[C@H]3C/C=C\CCN(C3=O)[C@@H](Cc3ccc(C)cc3)C(=O)N(C)CC(=O)N[C@@H](CCc3ccc(C(F)(F)F)c(C4CC4)c3)C(=O)N2C1 [PP2681],29.1,,,A (a compound having 10 or more and less than 20 is denoted as A),A (a compound having 10 or more and less than 20 is denoted as A),
CCO[C@@H]1C[C@H]2C(=O)NC3(CC(C)(C)C3)C(=O)N(C)[C@@H](C3CCCC3)C(=O)N(C)[C@H](C(=O)N(C)C)CC(=O)N(C)[C@@H](CC(C)C)C(=O)N[C@@H]([C@@H](C)CC)C(=O)N(C)CC(=O)N(C)[C@H]3C/C=C\CCN(C3=O)[C@@H](Cc3ccc(C)c(F)c3)C(=O)N(C)CC(=O)N[C@@H](CCc3ccc(C(F)(F)F)c(OC)c3)C(=O)N2C1 [PP2689],,,,A (a compound having 10 or more and less than 20 is denoted as A),B (a compound having 3 or more and less than 10 is denoted as B),"IC50 [1, 5]: 6.2 nM"
CCO[C@@H]1C[C@H]2C(=O)NC3(CC(C)(C)C3)C(=O)N(C)[C@@H](C3CCCC3)C(=O)N(C)[C@H](C(=O)N(C)C)CC(=O)N(C)[C@@H](CC(C)C)C(=O)N[C@@H]([C@@H](C)CC)C(=O)N(C)CC(=O)N(C)[C@H]3C/C=C\CCN(C3=O)[C@@H](Cc3ccc(C(C)(F)F)cc3)C(=O)N(C)CC(=O)N[C@@H](CCc3ccc(C(F)(F)F)c(OC)c3)C(=O)N2C1 [PP2690],,,,AA (a compound having 20 or more is denoted as AA),A (a compound having 10 or more and less than 20 is denoted as A),"IC50 [1, 5]: 3 nM"
CCC[C@H]1C(=O)N[C@@H]([C@@H](C)CC)C(=O)N(C)CC(=O)N(C)[C@H]2C/C=C\CCN(C2=O)[C@@H](Cc2ccc(C(F)(F)F)cc2)C(=O)N(C)CC(=O)N[C@@H](CCc2cc(F)c(C(F)(F)F)c(F)c2)C(=O)N2C[C@H](OCC)C[C@H]2C(=O)NC2(CC(C)(C)C2)C(=O)N(C)[C@@H](CC(C)(C)C)C(=O)N(C)C(C(=O)N(C)C)CC(=O)N1C (stereo partly drawn) [PP2730],5.8,,,A (a compound having 10 or more and less than 20 is denoted as A),A (a compound having 10 or more and less than 20 is denoted as A),
CCCC[C@H]1C(=O)N[C@@H]([C@@H](C)CC)C(=O)N(C)CC(=O)N(C)[C@H]2C/C=C\CCN(C2=O)[C@@H](Cc2ccc(C)cc2)C(=O)N(C)CC(=O)N[C@@H](CCc2cc(F)c(C(F)(F)F)c(F)c2)C(=O)N2C[C@H](OCC)C[C@H]2C(=O)NC2(CC(C)(C)C2)C(=O)N(C)[C@@H](C2CCCC2)C(=O)N(C)[C@H](C(=O)N(C)C)CC(=O)N1C [PP2800],7.9,,,A (a compound having 10 or more and less than 20 is denoted as A),A (a compound having 10 or more and less than 20 is denoted as A),
